Measurements as given in paper PMC9275698, “Morindone from Morinda citrifolia as a potential antiproliferative agent against colorectal cancer cell lines” (PLoS ONE, 2022).
Counter-ions that a name gives are not always drawn.

Legend:
[1] = system: HCT116 cells; assay: MTT cell cytotoxicity assay, HCT116; format: cell-based, human; conditions: for IC50: MTT, 72 hours, mean ± SD; for Selectivity index (SI) HCT116: IC50 in normal cells (CCD841 CoN) / IC50 in HCT116
Experimental: (§1) Three human colorectal cancer cell lines: HT29 cells (colorectal adenocarcinoma with p53 and APC mutation), LS174T cells (colorectal adenocarcinoma with KRAS mutation) and HCT116 cells (colorectal carcinoma with KRAS mutation) as well as normal colon, CCD841 CoN cells were obtained from American Type Cell Culture (Manassas, VA, USA). All cell lines were cultured in an incubator under the condition of 37°C temperature, humidified 5% CO2 air atmosphere. Cells were maintained in Dulbecco’s Modified Eagle Medium (DMEM) (Corning, NY, USA), supplemented with 10% Fetal Bovine Serum (FBS) (Sigma-Aldrich, St Louis, MO, USA), 25mM HEPES (Sangon Biotech, Shanghai, China) and 1% Penicillin/Streptomycin (Merck, Germany).
(§2) HCT116 wells were seeded at 7,500 cells/well while other cells were seeded at 30,000 cells/well in 96 well plates and allowed for 24 hours incubation. Cells were then treated with anthraquinone compounds at series of 2-fold dilution concentrations (50μM, 25μM, 12.5μM, 6.25μM, 3.12μM, 1.56μM, 0.78μM, 0.39μM) for 72 hours. 5-fluorouracil and DOX were used as positive controls in the treatment. Cell cytotoxicity was measured using the MTT Cell Count kit according to the manufacturer’s protocol. Assay was performed in triplicates and repeated in three individual experiments. The absorbance (A) was measured with microplate reader at 570nm wavelength and normalized to control. The half-maximal inhibitory concentration (IC50) value was determined using GraphPad Prism 8 software (GraphPad Software, Inc., CA, USA). Cell viability was calculated as follows: […]

[2] = system: CCD841 CoN cells; assay: MTT cell cytotoxicity assay, normal colon cells; format: cell-based; conditions: Homo sapiens, CCD-841CoN, 72 hours
Experimental: as §1, §2

[3] = system: LS174T cells; assay: MTT cell cytotoxicity assay, LS174T; format: cell-based, human; conditions: for IC50: Homo sapiens, LS174T, MTT, 72 hours, mean ± SD; for Selectivity index (SI) LS174T: IC50 in normal cells (CCD841 CoN) / IC50 in LS174T
Experimental: as §1, §2

[4] = system: HT29 cells; assay: MTT cell cytotoxicity assay, HT29; format: cell-based, human; conditions: for IC50: Homo sapiens, HT-29, MTT, 72 hours, mean ± SD; for Selectivity index (SI) HT29: IC50 in normal cells (CCD841 CoN) / IC50 in HT29
Experimental: as §1, §2

[5] = system: HepG2 cells (hepatocellular carcinoma); conditions: cited from earlier work
[6] = system: MCF-7 cells (breast cancer); conditions: cited from earlier work
[7] = system: HCT116 cells (colorectal cancer); conditions: cited from earlier work
[8] = system: oxacillin-resistant Staphylococcus aureus; parameters: method as in PMID 20521552; conditions: cited from earlier work
[9] = system: C. lipolytica; parameters: method as in PMID 21214480; conditions: cited from earlier work

With COc1c(O)cc2c(c1O)C(=O)c1ccc(C)c(O)c1C2=O [1,3,5-trihydoxy-2-methoxy-6-methyl anthraquinone] the IC50 ([1]; Homo sapiens, HCT-116, 72 h) was under 25 µM, the “Selectivity index (SI) HCT116” value [1] was 4.55 and the IC50 [1] was 24.57 ± 0.07 µM. For the same compound, the IC50 [2] was over 50 µM, the IC50 [3] was over 50 µM and the “Selectivity index (SI) LS174T” value [3] was 0.97. The melting point was 235 to 239 °C, the IC50 [4] was over 50 µM and the “Selectivity index (SI) HT29” value [4] was 0.03.

In the case of O=c1[nH]cc(F)c(=O)[nH]1 [5-Fluorouracil, 5-fluorouracil, reference compound], the IC50 ([1]; Homo sapiens, HCT-116, 72 h) is reported as 5 ± 0.04 µM, the IC50 [3] is reported as 4.16 ± 0.02 µM and the IC50 [4] is reported as 0.2 ± 0.05 µM.

With COc1c(C=O)c(O)cc2c1C(=O)c1ccccc1C2=O [Damnacanthal (2), Damnacanthal] the “Selectivity index (SI) HCT116” value [1] was 951.60, the IC50 [1] was 0.74 ± 0.06 µM and the IC50 ([1]; listed as damnacanthal) was under 25 µM. For the same compound, the “Anticancer and antitumor activities towards HepG2 cells” value [5] was “Good anticancer and antitumor activities”, the “Anticancer and antitumor activities towards MCF-7 cells” value [6] was “Good anticancer and antitumor activities” and the IC50 [2] was over 50 µM. For the same compound, the “Anticancer and antitumor activities towards HCT116 cells” value [7] was “Good anticancer and antitumor activities”, the IC50 [3] was over 50 µM and the “Selectivity index (SI) LS174T” value [3] was 0.28. For the same compound, the IC50 [4] was 28.17 ± 0.08 µM and the “Selectivity index (SI) HT29” value [4] was 24.85.

With COc1c(CO)c(O)cc2c1C(=O)c1ccccc1C2=O [Damnacanthol (7), Damnacanthol] the IC50 ([1]; Homo sapiens, HCT-116, 72 h) was under 25 µM, the IC50 [1] was 18.47 ± 0.02 µM and the IC50 [2] was over 50 µM. For the same compound, the IC50 [3] was over 50 µM, the “Selectivity index (SI) LS174T” value [3] was 0.59 and the melting point was 156 to 158 °C. For the same compound, the IC50 [4] was over 50 µM and the “Selectivity index (SI) HT29” value [4] was 1.46.

COc1cccc2c1C(=O)c1c(O)c3c(c(O)c1C2=O)C[C@@](O)(C(=O)CO)C[C@@H]3O[C@H]1C[C@H](N)[C@H](O)[C@H](C)O1 [Doxorubicin hydrochloride, doxorubicin hydrochloride, reference compound] gave an IC50 ([1]; Homo sapiens, HCT-116, 72 h) of 0.17 ± 0.04 µM, an IC50 [3] of 2.27 ± 0.04 µM and an IC50 [4] of 0.3 ± 0.06 µM.

In the case of COCc1c(O)cc2c(c1O)C(=O)c1ccccc1C2=O [Lucidin-ω-methylether (8), Lucidin-ω-methylether], the IC50 ([1]; Homo sapiens, HCT-116, 72 h) is reported as under 25 µM, the IC50 [1] is reported as 14.88 ± 0.01 µM and the IC50 [2] is reported as over 50 µM. The IC50 [3] was over 50 µM, the melting point was 170 to 173 °C and the IC50 [4] was over 50 µM.

For Cc1ccc2c(c1O)C(=O)c1ccc(O)c(O)c1C2=O [Morindone (4), Morindone], the “Selectivity index (SI) HCT116” value [1] was 76.25, the IC50 [1] was 10.7 ± 0.04 µM and the IC50 ([1]; listed as morindone) was under 25 µM. For the same compound, the “Antimicrobial activity against oxacillin-resistant Staphylococcus aureus” value [8] was “strong antimicrobial activity”, the IC50 [2] was over 50 µM and the “Antimicrobial activity against C. lipolytica” value [9] was “strong antimicrobial activity”. The IC50 [3] was 20.45 ± 0.03 µM, the “Selectivity index (SI) LS174T” value [3] was 39.89 and the IC50 [4] was 19.2 ± 0.05 µM. The “Selectivity index (SI) HT29” value [4] was 42.49.

With O=Cc1c(O)cc2c(c1O)C(=O)c1ccccc1C2=O [Nordamnacanthal (1), Nordamnacanthal] the IC50 ([1]; Homo sapiens, HCT-116, 72 h) was over 50 µM, the “Selectivity index (SI) HCT116” value [1] was 0.97 and the IC50 [2] was over 50 µM. The IC50 [3] was over 50 µM, the “Selectivity index (SI) LS174T” value [3] was 4.79 and the melting point was 219 to 222 °C. For the same compound, the IC50 [4] was over 50 µM and the “Selectivity index (SI) HT29” value [4] was 0.42.

For Cc1c(O)cc2c(c1O)C(=O)c1ccccc1C2=O [Rubiadin (6), Rubiadin], the IC50 ([1]; Homo sapiens, HCT-116, 72 h) was over 50 µM, the IC50 [2] was over 50 µM and the IC50 [3] was over 50 µM. For the same compound, the IC50 [4] was over 50 µM.

With Cc1ccc2c(c1O)C(=O)c1ccc(O)cc1C2=O [Sorendidiol (5), Sorendidiol] the IC50 ([1]; Homo sapiens, HCT-116, 72 h) was over 50 µM, the “Selectivity index (SI) HCT116” value [1] was 7.10 and the IC50 [2] was over 50 µM. For the same compound, the IC50 [3] was over 50 µM, the IC50 [4] was 27.17 ± 0.07 µM and the “Selectivity index (SI) HT29” value [4] was 29.19.
